From patent US20190389843A1, “PYRROLE mTORC INHIBITORS AND USES THEREOF” (Navitor Pharmaceuticals, Inc., priority 2016, published 2019)
Structures can show the parent of a compound that is named as a salt.

Assays:
[1] = tested on: pAKT in MCF7 (measure of mTORC2 activity); test: AlphaLISA Ultra pAKT assay; type: cell-based; details: Homo sapiens, MCF7, 2 h, MCF-7 cells, 2 hours compound incubation
Description: (§1) Assay Protocol: • 1. […] 16,000˜20,000 cells will be seeded in 36 μL medium per well. • 2. Change the culture medium with fresh medium and incubate for another 2 hours. • 3. Add 12 μL (4×) compounds into the cell plate by HAMILTON. Final DMSO concentration is 0.5%. Incubate for 2 hours. • 4. Aspirate 38 μL by HAMILTON, 10 μL rest per well. • 5. Add 10 μL 2× lysis buffer using HAMILTON; total volume in wells is 20 μL. Allow cells to shake for 30 min. Cover plate by plastic foil and store plate at −80° C. up to analysis. • 6. […] Add 5 ul acceptor beads into assay plate and incubation for 2 hours • 8. Add 5 ul donor beads and incubation for 2 hours • 9. Count the plate by EnSpire Multimode Plate Reader

[2] = tested on: pS6K1 in MCF7 (measure of mTORC1 activity); test: AlphaLISA Ultra pS6K1 assay; type: cell-based; details: Homo sapiens, MCF7, 2 h, MCF-7 cells, 2 hours compound incubation
Description: as §1, with “12,000˜16,000” for “16,000˜20,000”, “(4λ)” for “(4×)”

Structure (SMILES) | IC50 [1] | IC50 [2]
Cc1nc(N2CCN(C(=O)c3cc(CN4CCN(c5ccccc5Cl)CC4)c(C#N)n3C)CC2)ccc1F [Example I-37] | > 3000 nM | 10 to 1000 nM
Cc1c(CN2CCN(c3ccccc3C#N)CC2)cc(C(=O)N2CCCN(c3cccc(C#N)c3)CC2)n1C [Example I-45, 2-(4-((5-(4-(3-cyanophenyl)-1,4-diazepane-1-carbonyl)-1,2-dimethyl-1H-pyrrol-3-yl)methyl)piperazin-1-yl)benzonitrile] | > 10000 nM | 1000 to 3000 nM
Cc1c(CN2CCN(c3ccccc3Cl)CC2)cc(C(=O)N2CCN(c3cccc(C#N)c3)CC2)n1C [Example I-110, 3-(4-(4-((4-(2-chlorophenyl)piperazin-1-yl)methyl)-1,5-dimethyl-1H-pyrrole-2-carbonyl)piperazin-1-yl)benzonitrile] | > 1000 nM | 10 to 1000 nM
Cc1c(CN2CCN(c3ccccc3C#N)CC2)cc(C(=O)N2CCN(c3cccc(C#N)n3)CC2)n1C [Example I-43] | > 3000 nM | 10 to 1000 nM
Cc1c(CN2CCN(c3ccccc3C#N)CC2)cc(C(=O)N2CCN(c3cccnn3)CC2)n1C [Example I-16] | > 10000 nM | 1000 to 3000 nM
COCCn1cc(CN2CCN(c3ccccc3Cl)CC2)cc1C(=O)N1CCN(c2ccccc2)CC1 [Example I-152] | > 10000 nM | 1000 to 3000 nM
Cc1c(CN2CCN(c3ccccc3Cl)CC2)cc(C(=O)N2CCN(c3cc(F)c(F)c(F)c3)CC2)n1C [Example I-111, (4-((4-(2-Chlorophenyl)piperazin-1-yl)methyl)-1,5-dimethyl-1H-pyrrol-2-yl)(4-(3,4,5-trifluorophenyl)piperazin-1-yl)methanone] | > 3000 nM | 10 to 1000 nM
Cc1ccnc(N2CCN(C(=O)c3cc(CN4CCN(c5ccccc5C#N)CC4)c(C)n3C)CC2)c1 [Example I-62] | > 3000 nM | 10 to 1000 nM
C[C@H]1CN(c2cccc(F)c2C#N)CCN1C(=O)c1cc(CN2CCN(c3ccccc3Cl)CC2)cn1C [Example I-101, (S)-2-(4-(4-((4-(2-chlorophenyl)piperazin-1-yl)methyl)-1-methyl-1H-pyrrole-2-carbonyl)-3-methylpiperazin-1-yl)-6-fluorobenzonitrile] | > 5000 nM | 10 to 1000 nM
COCCn1cc(CN2CCN(c3ccccc3C#N)CC2)cc1C(=O)N1CCN(c2ccccc2C#N)CC1 [Example I-151] | > 10000 nM | 1000 to 3000 nM
Cc1c(CN2CCN(c3ccccc3C#N)CC2)cc(C(=O)N2CCN(c3ccccn3)C[C@@H]2C)n1C [Example I-42] | > 3000 nM | 10 to 1000 nM
Cc1c(CN2CCN(c3ccccc3Cl)CC2)cc(C(=O)N2CCn3nc(-c4ccccc4)cc3C2)n1C [Example I-81, (4-((4-(2-Chlorophenyl)piperazin-1-yl)methyl)-1,5-dimethyl-1H-pyrrol-2-yl)(2-phenyl-6,7-dihydropyrazolo[1,5-a]pyrazin-5(4H)-yl)methanone 2,2,2-trifluoroacetate] | > 10000 nM | 1000 to 3000 nM
O=C(c1cc(CN2CCN(c3ccccc3Cl)CC2)cn1CCO)N1CCN(c2ccccc2)CC1 [Example I-142] | > 3000 nM | 1000 to 3000 nM
Cc1c(CN2CCN(c3ccccc3Cl)CC2)cc(C(=O)N2CCN(c3ccc4[nH]ccc4c3)C[C@@H]2C)n1C [Example I-33, (S)-(4-(1H-indol-5-yl)-2-methylpiperazin-1-yl)(4-((4-(2-chlorophenyl)piperazin-1-yl)methyl)-1,5-dimethyl-1H-pyrrol-2-yl)methanone trifluoroacetate salt] | > 10000 nM | 1000 to 3000 nM
Cc1c(CN2CCN(c3ccccc3C#N)CC2)cc(C(=O)N2CCN(c3cc(F)c(F)cc3C#N)CC2)n1C [Example I-4] | > 1000 nM | 10 to 1000 nM
Cc1c(CN2CCN(c3ccccc3Cl)CC2)cc(C(=O)N2CCN(c3cccc(C#N)c3)C[C@@H]2C)n1C [Example I-120, (S)-3-(4-(4-((4-(2-chlorophenyl)piperazin-1-yl)methyl)-1,5-dimethyl-1H-pyrrole-2-carbonyl)-3-methylpiperazin-1-yl)benzonitrile] | > 1000 nM | 10 to 1000 nM
CCCCn1cc(CN2CCN(c3ccccc3Cl)CC2)cc1C(=O)N1CCN(c2ccccc2)CC1 [Example I-146] | > 10000 nM | 3000 to 10000 nM
COc1ccnc(N2CCN(C(=O)c3cc(CN4CCN(c5ccccc5C#N)CC4)c(C)n3C)CC2)c1 [Example I-61] | > 3000 nM | 10 to 1000 nM
Cn1cc(CN2CCN(c3ccccc3Cl)CC2)cc1C(=O)N1CCN(c2ccc(F)cc2)CC1 [Example I-135] | > 3000 nM | 1000 to 3000 nM
Cn1cc(CN2CCN(c3ccc(F)cc3Cl)CC2)cc1C(=O)N1CCN(c2ccc(F)cc2)CC1 [Example I-127] | > 10000 nM | 1000 to 3000 nM
Cc1c(CN2CCN(c3ccccc3Cl)CC2)cc(C(=O)N2CCN(c3cc(F)c(F)cc3C#N)CC2)n1C [Example I-1] | > 1000 nM | 10 to 1000 nM
Cc1c(CN2CCN(c3ccccc3Cl)CC2)cc(C(=O)N2CCN(c3cc(C#N)ccn3)CC2)n1C [Example I-59] | > 3000 nM | 1000 to 3000 nM
Cc1c(CN2CCN(c3ccccc3Cl)CC2)cc(C(=O)N2CCN(c3ncc(F)cn3)C[C@@H]2C)n1C [Example I-77, (S)-(4-((4-(2-chlorophenyl)piperazin-1-yl)methyl)-1,5-dimethyl-1H-pyrrol-2-yl)(4-(5-fluoropyrimidin-2-yl)-2-methylpiperazin-1-yl)methanone] | > 5000 nM | 1000 to 3000 nM
CCn1cc(CN2CCN(c3ccccc3Cl)CC2)cc1C(=O)N1CCN(c2ccccc2)CC1 [Example I-143] | > 3000 nM | 10 to 1000 nM
Cc1c(CN2CCN(c3ccccc3Cl)CC2)cc(C(=O)N2CCN(c3cc(F)cc(F)c3)C[C@@H]2C)n1C [Example I-93, (S)-(4-((4-(2-chlorophenyl)piperazin-1-yl)methyl)-1,5-dimethyl-1H-pyrrol-2-yl)(4-(3,5-difluorophenyl)-2-methylpiperazin-1-yl)methanone] | > 5000 nM | 10 to 1000 nM
Cc1c(CN2CCN(c3ccccc3C#N)CC2)cc(C(=O)N2CCN(c3ccccc3C#N)C[C@@H]2C)n1C [Example I-67] | > 10000 nM | 10 to 1000 nM
Cc1c(CN2CCN(c3ccccc3Cl)CC2)cc(C(=O)N2CCN(c3cc(F)cc(F)c3)CC2)n1C [Example I-96, (4-((4-(2-chlorophenyl)piperazin-1-yl)methyl)-1,5-dimethyl-1H-pyrrol-2-yl)(4-(3,5-difluorophenyl)piperazin-1-yl)methanone] | > 3000 nM | 10 to 1000 nM
Cc1c(CN2CCN(c3ccccc3Cl)CC2)cc(C(=O)N2CCN(c3cccc(Cl)c3)CC2)n1C [Example I-118, (4-(3-Chlorophenyl)piperazin-1-yl)(4-((4-(2-chlorophenyl)piperazin-1-yl)methyl)-1,5-dimethyl-1H-pyrrol-2-yl)methanone] | > 3000 nM | 10 to 1000 nM
Cc1c(CN2CCN(c3ccccc3Cl)CC2)cc(C(=O)N2CCN(c3cc(F)ccc3C#N)C[C@@H]2C)n1C [Example I-86, (S)-2-(4-(4-((4-(2-chlorophenyl)piperazin-1-yl)methyl)-1,5-dimethyl-1H-pyrrole-2-carbonyl)-3-methylpiperazin-1-yl)-4-fluorobenzonitrile] | > 10000 nM | 10 to 1000 nM
Cc1nc(C#N)c(N2CCN(C(=O)c3cc(CN4CCN(c5ccccc5C#N)CC4)c(C)n3C)CC2)o1 [Example I-22] | > 10000 nM | 1000 to 3000 nM
